# Data: ChEMBL document CHEMBL1201862, “PubChem BioAssay data set” (2004)
# Activity calls are given as the source filed them.
# Legend:
# [1] = target: 5-hydroxytryptamine receptor 1A (Homo sapiens, UniProt P08908); assay type: functional
# Estrogen receptor beta [2] = target: T1, Estrogen receptor beta (Homo sapiens, UniProt Q92731);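 also: recombinant ER-beta bound to coactivator SRC1 peptide in presence of estradiol agonist; inhibitors block coactivator peptide binding and lower the FRET signal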
# T1 sequence (Q92731 whole entry): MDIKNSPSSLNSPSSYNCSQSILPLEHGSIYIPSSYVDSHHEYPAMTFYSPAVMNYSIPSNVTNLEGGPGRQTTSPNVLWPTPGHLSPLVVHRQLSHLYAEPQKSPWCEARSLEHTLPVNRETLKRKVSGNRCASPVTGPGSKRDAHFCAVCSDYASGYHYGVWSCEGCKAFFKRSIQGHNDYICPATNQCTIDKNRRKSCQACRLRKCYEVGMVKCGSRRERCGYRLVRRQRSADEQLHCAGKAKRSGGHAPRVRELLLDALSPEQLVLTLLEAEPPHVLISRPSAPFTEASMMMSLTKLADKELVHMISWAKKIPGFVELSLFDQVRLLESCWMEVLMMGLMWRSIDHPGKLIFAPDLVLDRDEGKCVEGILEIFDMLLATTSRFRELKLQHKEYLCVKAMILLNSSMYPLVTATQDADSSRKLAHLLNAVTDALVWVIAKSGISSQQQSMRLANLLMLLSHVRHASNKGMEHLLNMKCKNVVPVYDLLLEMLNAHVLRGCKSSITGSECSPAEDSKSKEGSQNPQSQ
# Estrogen receptor beta [3] = target: T1, Estrogen receptor beta; experiment: ERβ–SRC-3 coactivator interaction inhibitors, confirmation, orthogonal assay, biochemical, ELISA, streptavidin-HRP readout (AID 1060)
# Estrogen receptor = Estrogen receptor (Homo sapiens, UniProt P03372);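 also: potency for inhibiting coactivator peptide recruitment to the receptor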
# [4] = cytotoxicity in HEK-293T cells, dose response, cytotoxicity control for TCR NF-kB inhibitor project, luminescence, T-cell screen hits (AID 489026); assay type: functional, cell-based;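 also: cells exposed to compound about 14 hours before the viability readout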
# Vero [5] = experiment: host cell cytotoxicity of antiviral hits, dose response, cytotoxicity control for West Nile virus antiviral project, secondary assay (AID 1650); assay type: functional; conditions: Chlorocebus sabaeus
# [6] = target: T2, E3 ubiquitin-protein ligase XIAP (Homo sapiens, UniProt P98170); experiment: XIAP antagonists, biochemical, IAP family, fluorescence polarization (AID 1018); assay type: functional
# T2 sequence (P98170 whole entry): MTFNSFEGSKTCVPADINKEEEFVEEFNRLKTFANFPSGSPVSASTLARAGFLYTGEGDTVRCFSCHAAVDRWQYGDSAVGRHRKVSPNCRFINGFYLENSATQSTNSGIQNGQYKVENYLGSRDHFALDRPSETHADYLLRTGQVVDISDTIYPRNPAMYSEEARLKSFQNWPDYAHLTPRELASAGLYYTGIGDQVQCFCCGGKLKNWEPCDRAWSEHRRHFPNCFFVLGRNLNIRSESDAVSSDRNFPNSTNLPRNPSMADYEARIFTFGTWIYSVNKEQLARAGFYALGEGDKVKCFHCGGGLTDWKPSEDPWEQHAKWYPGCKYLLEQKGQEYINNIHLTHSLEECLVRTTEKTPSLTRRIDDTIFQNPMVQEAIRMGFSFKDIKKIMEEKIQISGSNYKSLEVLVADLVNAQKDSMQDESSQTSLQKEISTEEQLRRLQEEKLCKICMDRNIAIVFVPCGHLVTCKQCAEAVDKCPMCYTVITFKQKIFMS
# H9c2 = experiment: cells; assay type: functional, cell-based; conditions: Rattus norvegicus, H9c2, Myocardium;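 also: confirmatory concentration-response retest of ultra-high-throughput screening hits for modulation of myocardial damage; cell death induced by hydrogen peroxide oxidative stress; compound pretreatment for 60 min then peroxide exposure for 2 h; potency is for protecting the cells against peroxide damage rather than for killing them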
# [7] = target: T2, E3 ubiquitin-protein ligase XIAP; experiment: Counter Screen using XIAP-Bir3 for Chemical Antagonists of Bir1/2 domains of IAP-family anti-apoptotic proteins. [Related pubchem assays (depositor defined):AID1018, AID1449, AID1514, AID1638, AID1749, AID1750, AID488957, AID488963]
# Protein skinhead-1 = target: T3, Protein skinhead-1 (Caenorhabditis elegans, UniProt P34707); assay type: functional
# T3 sequence (P34707 whole entry): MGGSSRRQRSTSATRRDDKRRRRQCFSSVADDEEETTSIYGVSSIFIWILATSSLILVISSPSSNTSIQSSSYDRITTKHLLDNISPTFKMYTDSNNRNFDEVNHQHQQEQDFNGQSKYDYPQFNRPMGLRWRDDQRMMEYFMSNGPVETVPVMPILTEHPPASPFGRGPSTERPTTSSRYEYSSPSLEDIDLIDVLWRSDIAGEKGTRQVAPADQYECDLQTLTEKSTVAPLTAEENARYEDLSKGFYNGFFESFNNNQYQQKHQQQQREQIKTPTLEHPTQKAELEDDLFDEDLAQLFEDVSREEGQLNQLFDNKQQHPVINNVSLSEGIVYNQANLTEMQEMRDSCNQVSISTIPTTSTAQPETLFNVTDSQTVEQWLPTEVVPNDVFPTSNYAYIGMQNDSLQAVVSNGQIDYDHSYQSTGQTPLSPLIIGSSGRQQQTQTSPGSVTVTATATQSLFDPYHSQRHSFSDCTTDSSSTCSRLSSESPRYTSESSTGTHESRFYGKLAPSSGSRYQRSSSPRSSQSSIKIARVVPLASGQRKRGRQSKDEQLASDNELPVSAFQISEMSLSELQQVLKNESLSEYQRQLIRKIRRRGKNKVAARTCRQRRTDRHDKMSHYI
# [8] = growth suppression of PTEN-null colon cells, dose response, cell-based, HCT116 PTEN knockout (AID 1047); assay type: functional;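 also: HCT116 colon tumor cells with PTEN knocked out; cells exposed to compound for 60 hours before readout; potency for loss of cell viability measured by luminescence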
# [9] = growth suppression of beta-catenin-knockout colon cells, dose response, cell-based, HCT116, human colon tumor (AID 1045); assay type: functional;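 also: HCT116 colon tumor cells with beta catenin knocked out; cells exposed to compound for 60 hours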
# [10] = target: T4, Dual specificity protein phosphatase 6 (Rattus norvegicus, UniProt Q64346); experiment: MKP-3 phosphatase inhibitors, primary screen, biochemical, rat enzyme, in vitro (AID 425)
# T4 sequence (Q64346 whole entry): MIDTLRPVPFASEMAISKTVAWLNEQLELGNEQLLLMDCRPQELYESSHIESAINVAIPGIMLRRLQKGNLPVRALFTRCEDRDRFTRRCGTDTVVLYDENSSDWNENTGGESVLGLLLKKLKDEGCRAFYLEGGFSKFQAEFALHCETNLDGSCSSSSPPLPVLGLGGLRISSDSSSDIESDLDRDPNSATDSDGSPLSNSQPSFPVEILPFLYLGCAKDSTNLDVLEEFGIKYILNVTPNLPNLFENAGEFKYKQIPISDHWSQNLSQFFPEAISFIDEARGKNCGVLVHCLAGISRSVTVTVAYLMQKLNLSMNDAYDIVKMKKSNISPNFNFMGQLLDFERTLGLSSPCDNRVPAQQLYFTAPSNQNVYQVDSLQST
# [11] = target: Protein-tyrosine kinase 2-beta (Homo sapiens, UniProt Q14289);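 also: potency of inhibitors of PYK2 kinase phosphorylation of poly-GT substrate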
# Protein-tyrosine kinase 2-beta, sequence (Q14289 whole entry): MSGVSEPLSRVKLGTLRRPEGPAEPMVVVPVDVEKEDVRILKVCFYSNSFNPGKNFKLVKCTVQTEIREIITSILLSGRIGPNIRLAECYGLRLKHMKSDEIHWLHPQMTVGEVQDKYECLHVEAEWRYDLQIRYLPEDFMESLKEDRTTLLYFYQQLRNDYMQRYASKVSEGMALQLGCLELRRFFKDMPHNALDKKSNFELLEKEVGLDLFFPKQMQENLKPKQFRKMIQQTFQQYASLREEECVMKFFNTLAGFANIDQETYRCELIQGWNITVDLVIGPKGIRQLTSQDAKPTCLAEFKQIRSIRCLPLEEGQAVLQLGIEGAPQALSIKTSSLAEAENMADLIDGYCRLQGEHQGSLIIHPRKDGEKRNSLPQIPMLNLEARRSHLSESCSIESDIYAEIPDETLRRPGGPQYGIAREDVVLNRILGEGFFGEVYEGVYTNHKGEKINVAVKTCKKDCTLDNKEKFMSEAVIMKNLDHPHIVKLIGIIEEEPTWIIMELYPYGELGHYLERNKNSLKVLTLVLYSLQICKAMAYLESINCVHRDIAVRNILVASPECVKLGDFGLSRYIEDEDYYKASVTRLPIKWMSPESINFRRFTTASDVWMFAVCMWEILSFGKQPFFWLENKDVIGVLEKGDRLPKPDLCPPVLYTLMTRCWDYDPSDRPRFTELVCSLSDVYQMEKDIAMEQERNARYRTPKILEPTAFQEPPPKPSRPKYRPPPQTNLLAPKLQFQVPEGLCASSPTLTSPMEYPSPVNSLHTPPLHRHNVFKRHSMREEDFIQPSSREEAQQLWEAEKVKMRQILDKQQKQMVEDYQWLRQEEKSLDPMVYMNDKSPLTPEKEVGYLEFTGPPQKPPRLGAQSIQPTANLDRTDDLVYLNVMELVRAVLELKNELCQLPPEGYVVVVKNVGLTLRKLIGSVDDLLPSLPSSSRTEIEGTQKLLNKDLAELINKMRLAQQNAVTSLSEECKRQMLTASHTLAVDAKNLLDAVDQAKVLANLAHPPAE
# [12] = target: Mitogen-activated protein kinase 10 (Homo sapiens, UniProt P53779); experiment: Dose response biochemical screening assay for inhibitors of c-Jun N-Terminal Kinase 3 (JNK3). [Related pubchem assays: 746 ]
# [13] = target: Diphosphomevalonate decarboxylase (Streptococcus pneumoniae serotype 2 (strain D39 / NCTC 7466), UniProt Q9FD53); experiment: S. pneumoniae DPM-DC inhibition retest, confirmation, biochemical, cuvette format, coupled NADH fluorescence (AID 1028); assay type: functional
# [14] = target: Transitional endoplasmic reticulum ATPase (Homo sapiens, UniProt P55072); experiment: Luminescence dose response biochemical high throughput screening assay for inhibitors of the p97 ATPase: synthesized compounds. [Related pubchem assays: 1481, 1517 ]
# [15] = target: Transitional endoplasmic reticulum ATPase (Homo sapiens, UniProt P55072, C522A); experiment: Luminescence counterscreen assay for p97 inhibitors: dose response biochemical high throughput screening assay to identify inhibitors of the C522A mutant p97 ATPase: synthesized compounds. [Related pubchem assays: 1481, 1517, 1551 ]
# [16] = target: Voltage-gated inwardly rectifying potassium channel KCNH2 (Homo sapiens, UniProt Q12809); experiment: hERG protection from proarrhythmic block, potency, dose response, cell-based, thallium flux (AID 2121); assay type: ADME
# [17] = Luminescent dose response cell-based high throughput screening assay for inhibitors of the Janus kinase 2 mutant JAK2V617F. [Related pubchem assays: 1446 (Primary screen.), 1521 (Confirmation assay.), 1486 (Counter screen.)]; assay type: functional
# INS1 = experiment: beta cell apoptosis inhibitors, cytokine rescue, dose response, luminescence, retest (AID 449756); assay type: functional, cell-based; conditions: Rattus norvegicus;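 also: cell death triggered by IL-1 beta plus TNF-alpha plus IFN-gamma mixture; protective hits raise ATP signal compared with cytokine alone wells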
# Fatty acid synthase [18] = target: T5, Fatty acid synthase (Homo sapiens, UniProt P49327); experiment: FAS thioesterase domain inhibitors, dose response, biochemical, endpoint fluorescence intensity, uHTS hits (AID 624327); assay type: functional;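 also: fluorescence from hydrolysis of an O-methyl fluorescein acyl ester substrate by the enzyme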
# T5 sequence (P49327 whole entry, the tested form may be a part): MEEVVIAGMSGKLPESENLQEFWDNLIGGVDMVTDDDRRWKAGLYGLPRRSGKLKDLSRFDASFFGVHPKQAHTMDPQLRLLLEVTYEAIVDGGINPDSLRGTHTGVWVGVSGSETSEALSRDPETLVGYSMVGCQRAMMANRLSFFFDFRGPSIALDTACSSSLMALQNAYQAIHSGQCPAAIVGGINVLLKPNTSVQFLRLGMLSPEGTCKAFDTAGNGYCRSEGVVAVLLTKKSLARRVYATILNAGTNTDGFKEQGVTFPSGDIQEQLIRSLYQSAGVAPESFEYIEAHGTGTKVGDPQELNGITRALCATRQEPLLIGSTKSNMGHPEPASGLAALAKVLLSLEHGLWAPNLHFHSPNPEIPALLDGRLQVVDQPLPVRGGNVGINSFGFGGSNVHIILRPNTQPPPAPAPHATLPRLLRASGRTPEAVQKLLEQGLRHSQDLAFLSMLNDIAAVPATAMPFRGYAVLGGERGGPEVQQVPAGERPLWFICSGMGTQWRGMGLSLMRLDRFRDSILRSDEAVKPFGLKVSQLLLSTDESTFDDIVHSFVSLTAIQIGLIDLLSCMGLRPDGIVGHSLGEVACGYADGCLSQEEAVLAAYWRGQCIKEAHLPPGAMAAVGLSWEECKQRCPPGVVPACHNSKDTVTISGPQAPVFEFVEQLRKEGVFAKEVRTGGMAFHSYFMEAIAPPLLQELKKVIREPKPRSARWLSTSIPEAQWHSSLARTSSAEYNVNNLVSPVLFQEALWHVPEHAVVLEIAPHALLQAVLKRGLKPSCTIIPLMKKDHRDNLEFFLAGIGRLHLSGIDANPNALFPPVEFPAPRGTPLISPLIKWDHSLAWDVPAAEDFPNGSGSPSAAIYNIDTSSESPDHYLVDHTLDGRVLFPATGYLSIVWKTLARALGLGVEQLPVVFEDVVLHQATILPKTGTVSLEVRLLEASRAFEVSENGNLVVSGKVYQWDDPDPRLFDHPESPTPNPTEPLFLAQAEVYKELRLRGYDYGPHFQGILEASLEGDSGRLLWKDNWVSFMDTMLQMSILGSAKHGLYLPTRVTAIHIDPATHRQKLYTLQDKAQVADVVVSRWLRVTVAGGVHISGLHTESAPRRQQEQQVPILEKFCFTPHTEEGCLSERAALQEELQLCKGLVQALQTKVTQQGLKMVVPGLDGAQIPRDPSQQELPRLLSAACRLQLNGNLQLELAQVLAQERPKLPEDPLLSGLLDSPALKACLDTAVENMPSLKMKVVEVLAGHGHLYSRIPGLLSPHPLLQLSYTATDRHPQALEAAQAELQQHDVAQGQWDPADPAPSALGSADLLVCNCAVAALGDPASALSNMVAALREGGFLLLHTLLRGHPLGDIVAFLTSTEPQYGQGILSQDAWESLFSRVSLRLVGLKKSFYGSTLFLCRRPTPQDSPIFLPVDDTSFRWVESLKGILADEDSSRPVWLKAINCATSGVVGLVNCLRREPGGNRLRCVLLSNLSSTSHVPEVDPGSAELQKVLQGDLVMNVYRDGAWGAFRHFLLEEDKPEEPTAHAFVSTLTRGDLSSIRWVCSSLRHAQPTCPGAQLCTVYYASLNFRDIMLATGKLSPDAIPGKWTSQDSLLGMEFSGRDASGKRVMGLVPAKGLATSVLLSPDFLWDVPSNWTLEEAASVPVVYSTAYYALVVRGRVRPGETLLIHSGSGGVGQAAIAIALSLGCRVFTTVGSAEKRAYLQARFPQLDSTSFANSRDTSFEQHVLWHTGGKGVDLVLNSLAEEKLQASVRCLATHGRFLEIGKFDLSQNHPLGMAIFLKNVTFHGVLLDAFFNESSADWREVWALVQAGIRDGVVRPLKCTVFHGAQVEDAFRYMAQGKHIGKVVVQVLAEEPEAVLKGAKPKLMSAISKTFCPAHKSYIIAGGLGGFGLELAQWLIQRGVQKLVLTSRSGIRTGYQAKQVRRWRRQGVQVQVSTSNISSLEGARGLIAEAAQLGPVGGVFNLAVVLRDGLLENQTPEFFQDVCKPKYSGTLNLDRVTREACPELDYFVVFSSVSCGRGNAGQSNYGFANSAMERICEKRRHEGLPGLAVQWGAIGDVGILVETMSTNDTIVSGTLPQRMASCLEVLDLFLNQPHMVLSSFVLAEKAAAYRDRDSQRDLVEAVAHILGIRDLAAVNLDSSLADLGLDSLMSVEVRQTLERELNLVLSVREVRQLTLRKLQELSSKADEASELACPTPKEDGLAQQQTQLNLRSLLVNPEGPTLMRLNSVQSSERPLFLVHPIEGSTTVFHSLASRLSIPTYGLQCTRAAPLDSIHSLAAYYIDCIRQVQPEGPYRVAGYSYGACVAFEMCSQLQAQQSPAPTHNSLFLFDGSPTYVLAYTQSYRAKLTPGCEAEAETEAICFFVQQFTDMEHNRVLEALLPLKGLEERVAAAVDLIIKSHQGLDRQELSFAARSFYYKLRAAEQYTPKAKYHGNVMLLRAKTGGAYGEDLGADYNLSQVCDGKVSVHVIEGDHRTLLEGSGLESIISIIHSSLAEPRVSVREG
# Fatty acid synthase [19] = target: T5, Fatty acid synthase; experiment: FAS thioesterase domain inhibitors, dose response, biochemical, kinetic fluorescence intensity (AID 624326); assay type: functional;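 also: rate of fluorescence rise from hydrolysis of a fluorogenic O-methyl fluorescein ester substrate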
# Genome polyprotein [20] = target: Genome polyprotein (Hepatitis C virus, UniProt Q2Q167); experiment: HCV core protein dimerization inhibitors, dose response, biochemical, TR-FRET (AID 2159); set-up: species or system Hepacivirus hominis;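 also: blocks dimerization of HCV core protein measured by TR-FRET between tagged core106 pairs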
# Genome polyprotein (Hepatitis C virus, UniProt Q2Q167), sequence (Q2Q167 whole entry): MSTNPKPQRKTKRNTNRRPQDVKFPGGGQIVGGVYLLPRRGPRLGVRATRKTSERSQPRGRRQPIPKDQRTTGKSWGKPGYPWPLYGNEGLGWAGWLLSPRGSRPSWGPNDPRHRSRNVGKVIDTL
# [21] = target: Neuropeptide Y receptor type 1 (Homo sapiens, UniProt P25929); assay type: functional;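 also: HEK293 cells with a CNG channel challenged with NPY then isoproterenol; potency as antagonist that reverses NPY suppression of cAMP signal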
# [22] = target: Neuropeptide Y receptor type 2 (Homo sapiens, UniProt P49146); assay type: functional, cell-based;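 also: HEK293 cells expressing the receptor and a CNG channel; stimulus was NPY near EC95 followed by isoproterenol to raise cAMP; antagonist potency measured as restoring cAMP signal that NPY suppresses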
# [23] = target: Polyadenylate-binding protein 1 (Homo sapiens, UniProt P11940); experiment: PABP poly(A) RNA binding inhibitors, primary screen, biochemical, fluorescence polarization, uHTS (AID 2014)
# [24] = Luminescence Cell-Based Dose Confirmation HTS to Identify Inhibitors of Platelet Dense Granule Release. [Related pubchem assays: 1663 (Primary HTS), 1678 (Summary of Project)]; assay type: functional
# [25] = NIH-3T3 fibroblast cytotoxicity, dose response, cytotoxicity control, cell-based, fluorescence, Alamar Blue, secondary assay (AID 2327); assay type: functional;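 also: NIH-3T3 mouse fibroblasts cultured with fluconazole at 8 µg/mL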
# Genome polyprotein [26] = target: Genome polyprotein (dengue virus type 2, UniProt P29990); experiment: Dengue-2 NS5 methyltransferase inhibitors, primary screen, biochemical, confirmation dose response (AID 588689); assay type: functional
# [27] = THP-1 cell cytotoxicity, dose response, cytotoxicity control for Vif-APOBEC3G degradation inhibitor project, THP-1 cells (AID 1117359); assay type: functional; conditions: Human immunodeficiency virus 1, THP-1
# [28] = Vero cell cytotoxicity, dose response, cytotoxicity control for Vif-APOBEC3G degradation inhibitor project, Vero cells (AID 1117358); assay type: functional; conditions: Human immunodeficiency virus 1, Vero
# [29] = C. albicans growth with fluconazole, confirmation, fluorescence, retest (AID 2467); assay type: functional, cell-based
# Vero [30] = experiment: Vero cell cytotoxicity, cytotoxicity control for flavivirus capping enzyme inhibitors (AID 588742); assay type: functional; conditions: Chlorocebus sabaeus
# [31] = target: T6, Long-chain-fatty-acid--AMP ligase FadD28 (Mycobacterium tuberculosis, UniProt P9WQ59); experiment: Fluorescence polarization aasay to screen for inhibitors that compete for the binding of FadD28 to a bisubstrate Measured in Biochemical System Using Plate Reader - 2147-01_Inhibitor_Dose_CherryPick_Activity.; assay type: functional, Mycobacterium tuberculosis H37Rv
# T6 sequence (P9WQ59 whole entry): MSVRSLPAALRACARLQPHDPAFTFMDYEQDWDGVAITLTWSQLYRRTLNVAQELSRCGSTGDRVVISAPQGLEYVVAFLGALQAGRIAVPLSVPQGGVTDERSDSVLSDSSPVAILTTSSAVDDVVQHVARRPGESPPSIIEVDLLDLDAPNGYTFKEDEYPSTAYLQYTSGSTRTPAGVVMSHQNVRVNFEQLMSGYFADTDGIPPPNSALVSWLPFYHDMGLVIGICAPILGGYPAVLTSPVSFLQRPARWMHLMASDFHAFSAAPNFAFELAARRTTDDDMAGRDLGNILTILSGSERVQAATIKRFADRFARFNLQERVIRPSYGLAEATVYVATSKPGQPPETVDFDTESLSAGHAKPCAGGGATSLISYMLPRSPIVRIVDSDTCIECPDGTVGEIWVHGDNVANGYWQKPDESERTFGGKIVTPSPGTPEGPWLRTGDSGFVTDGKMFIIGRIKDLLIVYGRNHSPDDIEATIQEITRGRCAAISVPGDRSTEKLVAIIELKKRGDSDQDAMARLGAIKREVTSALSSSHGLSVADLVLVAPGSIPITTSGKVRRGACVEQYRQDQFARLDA
# [32] = target: Luciferin 4-monooxygenase (Photinus pyralis, UniProt P08659); experiment: firefly luciferase enzyme inhibitors, dose response, biochemical, luminescence (AID 1891)
# Protein Tat = Protein Tat (Human immunodeficiency virus type 1 group M subtype B (isolate HXB2)(HIV-1), UniProt P04608); assay type: functional;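 also: tat binding to TAR RNA read out by fluorescence polarization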
# Protein Tat, sequence (P04608 whole entry): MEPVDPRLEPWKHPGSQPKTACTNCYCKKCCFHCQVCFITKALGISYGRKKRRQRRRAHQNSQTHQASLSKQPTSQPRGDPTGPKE
# [33] = target: Eukaryotic translation initiation factor 4H (Homo sapiens, UniProt Q15056); experiment: human eIF4H binding inhibitors, primary screen, translation initiation inhibitor project, biochemical, uHTS, fluorescence polarization (AID 2012)
# [34] = target: T7, Mannose-6-phosphate isomerase (Homo sapiens, UniProt P34949); experiment: inhibitors of human PMI, primary screen, biochemical, fluorescence intensity, coupled assay (AID 1209)
# T7 sequence (P34949 whole entry): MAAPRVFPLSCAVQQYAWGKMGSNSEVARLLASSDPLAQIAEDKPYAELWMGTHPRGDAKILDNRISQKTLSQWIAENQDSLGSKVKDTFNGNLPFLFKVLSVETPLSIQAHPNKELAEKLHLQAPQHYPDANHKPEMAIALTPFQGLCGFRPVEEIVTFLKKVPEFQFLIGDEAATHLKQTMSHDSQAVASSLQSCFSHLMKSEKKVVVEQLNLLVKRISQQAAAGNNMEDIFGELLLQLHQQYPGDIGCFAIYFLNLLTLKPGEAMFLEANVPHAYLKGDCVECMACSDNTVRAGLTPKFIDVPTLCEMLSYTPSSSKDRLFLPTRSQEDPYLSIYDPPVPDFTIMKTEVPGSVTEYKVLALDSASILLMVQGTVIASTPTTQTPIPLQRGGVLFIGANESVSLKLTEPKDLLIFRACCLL
# [35] = target: Induced myeloid leukemia cell differentiation protein Mcl-1 (Homo sapiens, UniProt Q07820); assay type: functional
# [36] = target: Sphingosine 1-phosphate receptor 2 (Homo sapiens, UniProt O95136); experiment: Dose Response Cell Based Assay for Agonists of the S1P2 Receptor of Purchased Analogues. [Related pubchem assays: 729, 843, 854, 736 ]; assay type: functional
structure (smiles),measurement,setting,value
CN(C)CCOC(=O)c1cn(Cc2ccccc2)c2ccccc12,EC50,[1],> 50 µM (not active)
Cc1occc1C(=O)Nc1ccccc1NC(=O)c1ccoc1C,IC50,Estrogen receptor beta [2],> 50 µM (not active)
same,IC50,Estrogen receptor beta [3],0.155 µM (not active)
same,IC50,Estrogen receptor,> 50 µM (not active)
CCOc1ccc2c(c1)OC(c1ccc(OC)cc1)(C(F)(F)F)NC2=O (configuration not stated),IC50,[4],> 80 µM (inactive)
same,CC50,Vero [5],13.7 µM (active)
Cc1ccc2cc3c(NC(=O)c4cccnc4)nn(C)c3nc2c1,IC50,[6],> 100 µM (not active)
same,IC50,H9c2,> 79 µM (inactive)
same,IC50,[7],> 100 µM (inactive)
same,IC50,Protein skinhead-1,> 100 µM (inactive)
O=C(Nc1cccc(-c2nc3ccccc3[nH]2)c1)c1cccc(NC(=O)c2ccco2)c1,EC50,[8],57.9 µM (active)
same,EC50,[9],53.7 µM (active)
same,IC50,[10],2.5 µM (active)
same,IC50,[11],5.03 µM (active)
same,IC50,[12],68.5 µM (not active)
CCCNC(=O)c1ccc(-n2sc3ccccc3c2=O)cc1,IC50,[13],7.48 µM (active)
N#Cc1ccc(Nc2nc(-c3ccc(C#N)cc3)cs2)cc1,IC50,[14],> 50 µM (not active)
same,IC50,[15],> 50 µM (not active)
N#Cc1c(NC(=O)c2cc(-n3cnnc3)ccc2Cl)sc2c1CCCC2,EC50,[16],12.7 µM (active)
CCCOc1ccc(C(=O)C(CN2CCOCC2)c2ccccc2)cc1 (configuration not stated),IC50,[17],0.909 µM (active)
same,AC50,INS1,> 60 µM (inactive)
COc1ccc(C2CC(c3cccs3)=NN2C(=O)CSc2nc(=O)n3ccc(C)cc3n2)cc1 (configuration not stated),IC50,Fatty acid synthase [18],8.11 µM (active)
same,IC50,Fatty acid synthase [19],7.51 µM (active)
same,IC50,Genome polyprotein [20],> 49.8 µM (not active)
O=C(CSc1nc2ccccc2o1)c1ccc2c(c1)OCCO2,IC50,[21],11.3 µM (not active)
same,IC50,[22],18.3 µM (not active)
same,IC50,Protein skinhead-1,> 100 µM (inactive)
C/N=c1\scc(-c2cccs2)n1/N=C/c1ccc(O)c(O)c1O,IC50,[23],> 100 µM (inactive)
same,EC50,[24],1.53 µM (active)
same,EC50,[25],> 150 µM (inactive)
same,IC50,Genome polyprotein [26],70.7 µM (active)
same,CC50,[27],12.1 µM (active)
same,CC50,[28],> 40 µM (active)
same,EC50,[29],> 38 µM (not active)
same,CC50,Vero [30],13 µM (active)
same,AC50,[31],> 100 µM (inactive)
same,EC50,[32],0.636 µM (active)
same,IC50,Protein Tat,98.1 µM (inconclusive)
same,IC50,[33],59.2 µM (active)
same,IC50,[34],15.5 µM (active)
same,IC50,[35],7.08 µM (active)
Cc1cc(C)nc(SCC(=O)OCC(=O)c2cc(C)n(Cc3ccccc3)c2C)n1,EC50,[36],> 30 µM (not active)
